Molecules are shown by their SMILES. In brackets after ≈: the same amount, converted by molar mass.

These results are taken from ChEMBL document CHEMBL1806458, “The design, synthesis and structure-activity relationships of novel isoindoline-based histone deacetylase inhibitors” (Bioorg Med Chem Lett, 2011).

One series deals with Cytochrome P450 3A4 (Homo sapiens, UniProt P08684).
A further series concerns the target Histone deacetylase 1 (Homo sapiens, UniProt Q13547).
The nature of series [1]: Half life in rat liver microsomes. In kind it is ADME, Microsome.
Series [2] in a line: Thermodynamic solubility of the compound at pH 6.8. In kind it is physicochemical. The conditions noted are these: buffer; for solubility thermodynamic: read-out: Therm_solubility.
The nature of series [3]: Half life in human liver microsomes. The format is ADME, Microsome.
Series [4] addresses T1, Voltage-gated inwardly rectifying potassium channel KCNH2 (Homo sapiens, UniProt Q12809). Kind of series: Inhibition of human ERG by automated patch clamp assay.
The next series has as its system hERG (KCNH2). The conditions noted are these: human.
For another series, the system named is HCT-116. Kind of series: cells. As to conditions: Homo sapiens.
Series [5] has as its target T1, Voltage-gated inwardly rectifying potassium channel KCNH2. Kind of series: Binding affinity to human ERG by radioligand binding assay.

Sequence of Cytochrome P450 3A4 (P08684 whole entry): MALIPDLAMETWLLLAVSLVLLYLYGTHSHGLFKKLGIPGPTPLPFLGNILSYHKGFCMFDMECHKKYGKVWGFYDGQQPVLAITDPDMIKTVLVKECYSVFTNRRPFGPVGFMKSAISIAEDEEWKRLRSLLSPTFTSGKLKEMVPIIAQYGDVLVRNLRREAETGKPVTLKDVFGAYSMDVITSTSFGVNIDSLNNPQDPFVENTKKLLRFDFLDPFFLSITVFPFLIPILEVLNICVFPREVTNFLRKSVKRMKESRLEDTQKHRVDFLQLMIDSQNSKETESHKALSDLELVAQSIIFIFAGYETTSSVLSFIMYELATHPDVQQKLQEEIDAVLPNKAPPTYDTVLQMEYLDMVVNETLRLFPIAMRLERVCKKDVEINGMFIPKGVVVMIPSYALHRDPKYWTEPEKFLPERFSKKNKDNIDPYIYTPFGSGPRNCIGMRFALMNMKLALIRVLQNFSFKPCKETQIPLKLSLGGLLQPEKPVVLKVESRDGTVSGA
T1 sequence (Q12809 whole entry): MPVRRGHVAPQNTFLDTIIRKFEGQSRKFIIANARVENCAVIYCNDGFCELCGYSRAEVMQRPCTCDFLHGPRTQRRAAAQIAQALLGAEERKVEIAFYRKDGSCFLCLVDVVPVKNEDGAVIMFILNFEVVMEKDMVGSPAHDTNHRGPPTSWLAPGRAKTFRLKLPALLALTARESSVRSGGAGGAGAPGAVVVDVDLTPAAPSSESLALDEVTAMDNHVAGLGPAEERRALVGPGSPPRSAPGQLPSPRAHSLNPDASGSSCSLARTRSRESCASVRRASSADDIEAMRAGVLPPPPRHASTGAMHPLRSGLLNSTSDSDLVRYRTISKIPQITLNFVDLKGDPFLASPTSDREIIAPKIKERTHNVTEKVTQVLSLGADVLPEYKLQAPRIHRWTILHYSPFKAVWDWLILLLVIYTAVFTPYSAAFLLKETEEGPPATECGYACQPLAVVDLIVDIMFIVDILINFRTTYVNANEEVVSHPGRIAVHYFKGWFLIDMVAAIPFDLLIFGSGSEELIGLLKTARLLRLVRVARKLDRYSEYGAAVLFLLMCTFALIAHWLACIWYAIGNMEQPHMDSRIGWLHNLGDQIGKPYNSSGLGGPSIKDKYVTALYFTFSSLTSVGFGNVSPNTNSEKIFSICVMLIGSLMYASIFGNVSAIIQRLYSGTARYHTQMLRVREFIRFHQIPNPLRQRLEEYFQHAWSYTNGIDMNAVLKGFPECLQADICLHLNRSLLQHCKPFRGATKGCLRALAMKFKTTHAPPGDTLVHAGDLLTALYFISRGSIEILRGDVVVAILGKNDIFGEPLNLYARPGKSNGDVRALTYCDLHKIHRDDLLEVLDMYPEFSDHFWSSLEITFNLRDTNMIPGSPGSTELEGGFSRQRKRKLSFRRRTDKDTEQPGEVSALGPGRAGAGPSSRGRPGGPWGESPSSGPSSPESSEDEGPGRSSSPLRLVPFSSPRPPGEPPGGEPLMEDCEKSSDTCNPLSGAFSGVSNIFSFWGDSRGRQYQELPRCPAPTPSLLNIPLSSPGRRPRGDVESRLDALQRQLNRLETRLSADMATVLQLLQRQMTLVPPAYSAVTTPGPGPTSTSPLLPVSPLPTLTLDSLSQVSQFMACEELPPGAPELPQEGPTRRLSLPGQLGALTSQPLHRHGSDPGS
Sequence of Histone deacetylase 1 (Q13547 whole entry): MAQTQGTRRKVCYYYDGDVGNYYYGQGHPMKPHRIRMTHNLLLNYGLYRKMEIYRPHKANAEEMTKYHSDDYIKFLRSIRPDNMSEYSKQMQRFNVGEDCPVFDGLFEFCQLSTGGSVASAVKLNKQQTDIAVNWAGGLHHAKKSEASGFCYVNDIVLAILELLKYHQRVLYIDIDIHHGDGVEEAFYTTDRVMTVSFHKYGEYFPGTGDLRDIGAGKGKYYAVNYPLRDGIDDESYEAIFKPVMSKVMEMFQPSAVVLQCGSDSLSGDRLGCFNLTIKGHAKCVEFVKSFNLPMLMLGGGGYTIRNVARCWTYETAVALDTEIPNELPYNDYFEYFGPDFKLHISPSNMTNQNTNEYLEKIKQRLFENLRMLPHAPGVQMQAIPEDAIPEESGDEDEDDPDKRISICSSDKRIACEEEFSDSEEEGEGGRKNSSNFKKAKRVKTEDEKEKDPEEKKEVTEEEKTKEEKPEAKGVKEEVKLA
Description for HCT-116: Antiproliferative activity against human HCT116 cells
Description for Histone deacetylase 1: Inhibition of purified recombinant HDAC1

In the case of `Cc1[nH]c2ccccc2c1CCN1Cc2ccc(/C=C/C(=O)NO)cc2C1`, the IC50 is above 10000 nM on Cytochrome P450 3A4, 26 nM at Histone deacetylase 1, 4800 nM in series [4] and 42 nM in the series on HCT-116. The half-life worked out at 2 min in series [1] and 30 min in series [3]. Besides, the solubility thermodynamic in [2] was found to be 263 µM (≈ 95.1 µg/mL). Also, the selectivity ratio with hERG (KCNH2) (hct-116) was determined as 114.

Consider `CC(C)(C)OC(=O)N1Cc2ccc(/C=C/C(=O)NO)cc2C1`, for which the IC50 against Histone deacetylase 1 is 520 nM; in series [4] it was above 30000 nM. In addition, the half-life came out at 14 min in series [1] and 131 min in series [3]. Also, the solubility thermodynamic in series [2] is 99 µM (≈ 30.1 µg/mL).

`CC(C)(C)C(=O)N1Cc2ccc(/C=C/C(=O)NO)cc2C1`: the values for the IC50 (against Histone deacetylase 1; in series [4]) were 420 nM and above 30000 nM, respectively.

Turning to `O=C(/C=C/c1ccc2c(c1)CN(C(=O)C1CC1)C2)NO`, the IC50 against Histone deacetylase 1 is 420 nM; in series [4], above 30000 nM.

For `O=C(/C=C/c1ccc2c(c1)CN(C(=O)C1CCCC1)C2)NO`, the IC50 against Histone deacetylase 1 is 350 nM; in [4] it was above 30000 nM.

The molecule `O=C(/C=C/c1ccc2c(c1)CN(C(=O)C1CCCCC1)C2)NO` registered an IC50 at Histone deacetylase 1 of 390 nM. In other words, the sub-micromolar range.

As to `O=C(/C=C/c1ccc2c(c1)CN(C(=O)c1cccc(C(F)(F)F)c1)C2)NO`, the IC50 on Histone deacetylase 1 turned out to be 200 nM; in the series on HCT-116, 5820 nM.

Regarding `O=C(/C=C/c1ccc2c(c1)CN(C(=O)c1cccnc1)C2)NO`, the IC50 against Histone deacetylase 1 was 380 nM; in [4], above 30000 nM. Also, the Therm_solubility entry in series [2] is given as “soluble”.

As to `O=C(/C=C/c1ccc2c(c1)CN(C(=O)Cc1ccccc1)C2)NO`, the IC50 at Cytochrome P450 3A4 is above 50000 nM; against Histone deacetylase 1, 130 nM; with HCT-116, 830 nM. Also, the Therm_solubility result in series [2] is recorded as “soluble”.

Consider `Cc1[nH]c2ccccc2c1CC(=O)N1Cc2ccc(/C=C/C(=O)NO)cc2C1`, for which the IC50 in series [5] is above 30000 nM; at Histone deacetylase 1, 20 nM; in series [4], above 30000 nM; in the series on HCT-116 it was 190 nM. The half-life is 15 min in [1] and 173 min in series [3]. Also, the solubility thermodynamic in series [2] is below 20 µM. For the same molecule, the selectivity ratio in the series with hERG (KCNH2) (hERG assay and HCT116 cells) is above 158.

As for `CS(=O)(=O)N1Cc2ccc(/C=C/C(=O)NO)cc2C1`, the IC50 against Histone deacetylase 1 is 630 nM; in series [4], above 30000 nM. For the same molecule, the Therm_solubility result in [2] is listed as “soluble”.

For `CCCCS(=O)(=O)N1Cc2ccc(/C=C/C(=O)NO)cc2C1`, the IC50 on Histone deacetylase 1 was 150 nM; in the series on HCT-116, 3210 nM. For the same molecule, the Therm_solubility entry in [2] is “soluble”.

Regarding `O=C(/C=C/c1ccc2c(c1)CN(S(=O)(=O)C1CC1)C2)NO`, the results for the concentration for half-maximal inhibition (IC50) (at Histone deacetylase 1; in series [4]) were 790 nM and above 30000 nM, respectively. The Therm_solubility entry in series [2] is recorded as “soluble”.

`O=C(/C=C/c1ccc2c(c1)CN(S(=O)(=O)Cc1ccccc1)C2)NO`: the IC50 at Histone deacetylase 1 was 120 nM; in series [4] it was above 30000 nM; in the series on HCT-116, 1120 nM. In addition, the Therm_solubility result in series [2] is reported as “soluble”.

`O=C(/C=C/c1ccc2c(c1)CN(S(=O)(=O)c1ccccc1)C2)NO`: the IC50 against Histone deacetylase 1 is 190 nM; in series [4], above 30000 nM; with HCT-116, 3420 nM. For the same molecule, in series [2], the Therm_solubility result is reported as “soluble”.

Turning to `O=C(/C=C/c1ccc2c(c1)CN(S(=O)(=O)c1cccs1)C2)NO`, the IC50 at Cytochrome P450 3A4 was above 50000 nM; on Histone deacetylase 1 it was 89 nM; in the series on HCT-116, 800 nM. Further, the solubility thermodynamic in series [2] came to 34 µM (≈ 11.9 µg/mL).

For the molecule `O=C(/C=C/c1ccc2c(c1)CN(S(=O)(=O)c1ccncc1)C2)NO`, the values for the IC50 (against Histone deacetylase 1; in [4]) were 480 nM and above 30000 nM, respectively. The Therm_solubility result in series [2] is “soluble”.

Take `O=C(/C=C/c1ccc2c(c1)CN(S(=O)(=O)c1cccnc1)C2)NO`: the results for the IC50 (on Histone deacetylase 1; in series [4]; with HCT-116) were 150 nM, above 30000 nM and 4260 nM, respectively. The Therm_solubility result in series [2] is recorded as “soluble”.

With `Cn1cnc(S(=O)(=O)N2Cc3ccc(/C=C/C(=O)NO)cc3C2)c1`, the values for the IC50 (against Histone deacetylase 1; in series [4]; in the series with HCT-116) were 140 nM, above 30000 nM and 8840 nM, respectively. Moreover, the Therm_solubility entry in series [2] is on record as “soluble”.

As for `Cc1ccc(S(=O)(=O)N2Cc3ccc(/C=C/C(=O)NO)cc3C2)cc1`, the IC50 on Histone deacetylase 1 is 47 nM; in [4], above 30000 nM; with HCT-116, 1580 nM. Also, the half-life in series [1] was 4.1 min; in series [3], 11 min. Moreover, the solubility thermodynamic in series [2] turned out to be 20 µM (≈ 7.17 µg/mL).

`Cc1cccc(S(=O)(=O)N2Cc3ccc(/C=C/C(=O)NO)cc3C2)c1`: the IC50 is 62 nM at Histone deacetylase 1, above 30000 nM in series [4] and 1420 nM in the series on HCT-116. For the same molecule, the figures for the half-life in series [1] and in series [3] were 7 min and 15 min, respectively. For the same molecule, the solubility thermodynamic in series [2] amounted to 20 µM (≈ 7.17 µg/mL).

On to `Cc1ccccc1S(=O)(=O)N1Cc2ccc(/C=C/C(=O)NO)cc2C1`, for which the IC50 against Histone deacetylase 1 was found to be 130 nM; with HCT-116, 2230 nM. In addition, the Therm_solubility entry in series [2] is listed as “soluble”.

Regarding `O=C(/C=C/c1ccc2c(c1)CN(S(=O)(=O)c1ccc(C(F)(F)F)cc1)C2)NO`, the figures for the IC50 against Histone deacetylase 1 and in the series on HCT-116 were 160 nM and 2430 nM, respectively. The Therm_solubility entry in series [2] is given as “soluble”.

`O=C(/C=C/c1ccc2c(c1)CN(S(=O)(=O)c1cccc(C(F)(F)F)c1)C2)NO`: the values for the IC50 (on Histone deacetylase 1; in series [4]; with HCT-116) were 160 nM, above 30000 nM and 2050 nM, respectively. Also, the Therm_solubility result in [2] is given as “soluble”.

Regarding `COc1ccc(S(=O)(=O)N2Cc3ccc(/C=C/C(=O)NO)cc3C2)cc1`, the IC50 against Cytochrome P450 3A4 is above 50000 nM; against Histone deacetylase 1, 35 nM; in series [4] it was above 30000 nM; in the series with HCT-116, 930 nM. Also, the half-life in series [1] was found to be 8.5 min; in series [3] it was 19 min. In series [2], the solubility thermodynamic is below 5 µM.

In the case of `COc1cccc(S(=O)(=O)N2Cc3ccc(/C=C/C(=O)NO)cc3C2)c1`, the results for the IC50 (against Histone deacetylase 1; in series [4]; with HCT-116) were 92 nM, above 30000 nM and 1130 nM, respectively. For the same molecule, the Therm_solubility result in series [2] is recorded as “soluble”.

For `O=C(/C=C/c1ccc2c(c1)CN(Cc1ccccc1)C2)NO`, the IC50 at Histone deacetylase 1 turned out to be 200 nM; in series [4], 27500 nM; in the series with HCT-116 it was 1040 nM. Besides, the half-life was found to be 29 min in series [1] and 50 min in series [3].

Consider `O=C(/C=C/c1ccc2c(c1)CN(CCC1CCCCC1)C2)NO`, for which the IC50 on Histone deacetylase 1 is 100 nM; with HCT-116, 900 nM.

As for `O=C(/C=C/c1ccc2c(c1)CN(CCc1c[nH]c3ccccc13)C2)NO`, the IC50 was above 10000 nM against Cytochrome P450 3A4, 16 nM against Histone deacetylase 1 and 220 nM with HCT-116. This molecule showed a half-life in series [1] of 5 min. Besides, the solubility thermodynamic in series [2] stood at 490 µM (≈ 170 µg/mL).

As to `O=C(/C=C/c1ccc2c(c1)CN(CCc1cnn3ccccc13)C2)NO`, the IC50 was above 50000 nM at Cytochrome P450 3A4, 78 nM against Histone deacetylase 1, 5200 nM in [4] and 530 nM in the series with HCT-116. For the same molecule, the half-life in series [1] was 9 min; in series [3] it was 112 min. In [2], the solubility thermodynamic came to 765 µM (≈ 267 µg/mL). Also, the selectivity ratio with hERG (KCNH2) (hct-116) turned out to be 7.4.

As to `Cc1noc(-c2ccccc2)c1CCN1Cc2ccc(/C=C/C(=O)NO)cc2C1`, the values for the IC50 on Histone deacetylase 1 and with HCT-116 were 170 nM and 2200 nM, respectively. Moreover, the half-life in [1] is 6 min; in [3], 17 min. The solubility thermodynamic in series [2] is 490 µM (≈ 191 µg/mL).

With `O=C(/C=C/c1cccc(S(=O)(=O)Nc2ccccc2)c1)NO` [BELINOSTAT], the half-life stood at 18 min in series [1] and 405 min in [3]. The solubility thermodynamic in series [2] came to 734 µM (≈ 234 µg/mL).

As for `O=C(/C=C/c1ccc(CN(CCO)CCc2c[nH]c3ccccc23)cc1)NO` [DACINOSTAT], the half-life amounted to 2.3 min in series [1] and 12 min in series [3]. Also, the solubility thermodynamic in series [2] amounted to 97 µM (≈ 36.8 µg/mL).

As to `Nc1ccccc1NC(=O)c1ccc(CNC(=O)OCc2cccnc2)cc1` [ENTINOSTAT], the IC50 against Cytochrome P450 3A4 worked out at 730 nM. In addition, the half-life in [1] and in series [3] was 405 min in each case. Also, the solubility thermodynamic in series [2] was 401 µM (≈ 151 µg/mL).

Take `Nc1ccccc1NC(=O)c1ccc(CNc2nccc(-c3cccnc3)n2)cc1` [MOCETINOSTAT]: the half-life in series [1] came to 31.3 min; in series [3], 37.8 min. In addition, the solubility thermodynamic in series [2] stood at 33 µM (≈ 13.1 µg/mL).

As for `O=C(CCCCCCC(=O)Nc1ccccc1)NO` [VORINOSTAT], the half-life in [1] was 114 min; in [3] it was 405 min. Besides, the Therm_solubility in [2] came out at 19 µM.
